The record followed here is ChEMBL document CHEMBL3425485 (J Med Chem, 2015).

The source made the active and inactive calls. No cut-off for these calls is given here. Bounds are passed on as bounds.

What is called clearance is a measure of how efficiently the substance is removed, as volume per time. Read a high clearance as a high capacity for elimination. For orientation: microsomal CLint means the rate of metabolic loss divided by the concentration. A lower microsomal CLint goes with greater metabolic stability. By IC50 is commonly meant the point on the concentration scale where inhibition reaches its midpoint. Broadly, the inhibition is the relative decrease from the control value, in per cent. As a reminder, the CC50 is the concentration at which the toxic effect on the cells reaches its halfway point. Usually IC90 stands for the concentration at which the effect reaches the 90% level. Higher therefore signals weaker potency. As usually defined, the bioavailability is the share of a dose that reaches the circulation, judged against a reference dose that is usually intravenous. Read a high bioavailability as much systemic uptake. For orientation: Vd means the apparent volume that relates the amount in the body to the concentration in plasma or blood. By fraction unbound is commonly meant free concentration divided by total concentration. Lower therefore signals extensive binding. Broadly, the half-life is the time in which the quantity being followed falls by half. A high value points to slow decline.

In data set [1] the target is T1, Cytochrome P450 1A1 (Homo sapiens, UniProt P04798).
T1 sequence (P04798 whole entry): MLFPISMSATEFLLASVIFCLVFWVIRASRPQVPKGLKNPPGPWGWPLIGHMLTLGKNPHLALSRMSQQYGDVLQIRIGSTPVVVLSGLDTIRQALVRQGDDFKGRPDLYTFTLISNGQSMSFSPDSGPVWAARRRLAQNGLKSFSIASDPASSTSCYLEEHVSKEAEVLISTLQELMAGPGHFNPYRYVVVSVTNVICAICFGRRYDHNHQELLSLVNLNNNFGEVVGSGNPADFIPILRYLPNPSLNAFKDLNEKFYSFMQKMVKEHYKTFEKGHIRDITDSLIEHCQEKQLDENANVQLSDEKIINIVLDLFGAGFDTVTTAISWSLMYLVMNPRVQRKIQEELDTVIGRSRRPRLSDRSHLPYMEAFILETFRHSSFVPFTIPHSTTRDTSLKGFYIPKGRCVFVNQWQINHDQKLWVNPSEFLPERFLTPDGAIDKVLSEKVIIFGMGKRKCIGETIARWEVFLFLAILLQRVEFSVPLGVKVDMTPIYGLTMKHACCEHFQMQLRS
Put plainly: Drug metabolism assessed as recombinant CYP1A1 (unknown origin)-mediated compound intrinsic clearance measured per mg of protein. Conditions: recombinant enzyme. Format: ADME.

A short description of data set [2]: Total plasma clearance in iv dosed rat. Format: ADME, organism-based.
A short description of data set [3]: Drug metabolism in rat lung microsomes assessed as compound turnover. Format: ADME.
The subject of data set [4] is HeLa. Put plainly: Selectivity for BRCA1 shRNA-transfected human HeLa cells over wild type human HeLa cells.
A short description of data set [5]: Drug metabolism in rat kidney microsomes assessed as compound turnover. Format: ADME.
A short description of data set [6]: Intrinsic clearance in human liver microsomes measured per mg of protein. (In general: Liver microsomes are vesicles of endoplasmic reticulum, rich in cytochrome P450 enzymes.)
For data set [7], the target named is Poly [ADP-ribose] polymerase 1 (Homo sapiens, UniProt P09874).
Poly [ADP-ribose] polymerase 1, sequence (P09874 whole entry): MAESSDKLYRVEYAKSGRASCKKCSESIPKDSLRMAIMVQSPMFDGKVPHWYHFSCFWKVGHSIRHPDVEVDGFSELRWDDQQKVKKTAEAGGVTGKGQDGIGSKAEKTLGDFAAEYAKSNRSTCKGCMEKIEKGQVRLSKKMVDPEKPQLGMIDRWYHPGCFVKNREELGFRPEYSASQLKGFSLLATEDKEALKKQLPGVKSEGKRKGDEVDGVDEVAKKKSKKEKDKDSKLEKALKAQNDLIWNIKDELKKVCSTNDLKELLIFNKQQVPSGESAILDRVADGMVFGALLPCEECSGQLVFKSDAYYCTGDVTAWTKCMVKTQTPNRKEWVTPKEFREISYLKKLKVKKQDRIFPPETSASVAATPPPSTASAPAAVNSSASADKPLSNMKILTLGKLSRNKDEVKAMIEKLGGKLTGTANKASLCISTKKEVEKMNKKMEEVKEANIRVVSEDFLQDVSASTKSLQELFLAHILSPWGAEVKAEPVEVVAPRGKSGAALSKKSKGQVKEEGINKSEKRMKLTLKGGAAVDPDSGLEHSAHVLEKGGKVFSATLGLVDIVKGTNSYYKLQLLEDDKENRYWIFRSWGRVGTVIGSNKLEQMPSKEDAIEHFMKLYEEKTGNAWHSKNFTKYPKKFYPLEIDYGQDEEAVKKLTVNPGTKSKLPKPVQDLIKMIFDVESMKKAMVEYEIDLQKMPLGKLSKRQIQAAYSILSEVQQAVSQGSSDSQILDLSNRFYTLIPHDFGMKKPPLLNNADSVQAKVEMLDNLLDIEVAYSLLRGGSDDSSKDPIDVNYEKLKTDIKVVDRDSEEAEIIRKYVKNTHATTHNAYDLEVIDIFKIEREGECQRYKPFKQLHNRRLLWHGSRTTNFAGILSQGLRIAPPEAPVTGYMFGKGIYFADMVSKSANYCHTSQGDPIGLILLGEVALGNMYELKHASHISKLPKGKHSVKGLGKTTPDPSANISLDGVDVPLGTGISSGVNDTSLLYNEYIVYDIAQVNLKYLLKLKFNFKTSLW
Description: Inhibition of PARP1 (unknown origin)
Data set [8] is described as follows: Plasma clearance in rat. The class given is ADME.
A short description of data set [9]: Drug metabolism in iv dosed bile cannulated dog assessed as parent compound recovery.
The target of data set [10] is T2, PARP 1, 2 and 3 (Homo sapiens) (UniProt P09874+Q9Y6F1+Q9UGN5). Conditions: CAPAN-1, 50 to 100 mg/kg.
Description: Inhibition of PARP activity in tumor of immunocompromised mouse xenografted with BRCA2-deficient human Capan1 cells assessed as incorporation of [3H]NAD in PAR chains in response to nicked DNA at 50 to 100 mg/kg, po measured after 24 hrs
Data set [11] deals with DoTc2-4510. Put plainly: cells. The settings on record: Homo sapiens.
Description: Cytotoxicity against human DoTc2-4510 cells carrying BRCA2 mutant assessed as inhibition of cell proliferation after 5 to 7 days by CellTiter-Blue assay
Data set [12] has as its system Plasma. Nature of the data set: Plasma trough concentration in human at 300 mg/day. Conditions: read-out: Cmin.
For data set [13], the system named is HeLa. Nature of the data set: Cytotoxicity against human HeLa cells transfected with BRCA1 shRNA assessed as reduction of cell viability after 5 to 7 days by CellTiter-Blue assay. The class given is functional. For orientation: The colour change of resazurin is a common sign of viable cells or microbes.
The subject of data set [14] is MDA-MB-436. The settings on record: Homo sapiens, 50 mg/kg.
Description: Antitumor activity against human MDA-MB-436 cells harboring BRCA1 mutant xenografted in immunocompromised mouse assessed as tumor growth inhibition at 50 mg/kg, po administered daily
In data set [15] the target is T2, PARP 1, 2 and 3 (Homo sapiens). Conditions: CAPAN-1.
Description: Inhibition of PARP in BRCA2-deficient human CAPAN-1 cells assessed as inhibition of hydrogen peroxide-induced PARylation by cell-based assay
A short description of data set [16]: Oral bioavailability in dog. Conditions: in vivo.
Data set [17] can be described thus: cells. The settings on record: Homo sapiens, SUM149PT.
Description: Cytotoxicity against human SUM149PT cells carrying BRCA1 mutant assessed as inhibition of cell proliferation after 5 to 7 days by CellTiter-Blue assay
Data set [18] can be described thus: Drug metabolism in iv dosed bile cannulated rat assessed as parent compound recovery.
Data set [19] concerns A549. Nature of the data set: cells. Conditions: Homo sapiens.
Description: Cytotoxicity against human A549 cells transfected with BRCA2 shRNA assessed as inhibition of cell proliferation after 5 to 7 days by CellTiter-Blue assay
Data set [20] is described as follows: Volume of distribution at steady state in rat. The settings on record: in vivo.
In data set [21] the target is T2, PARP 1, 2 and 3 (Homo sapiens). Conditions: A2780.
Description: Inhibition of PARP in human A2780 cells assessed as inhibition of hydrogen peroxide-induced PARylation by cell-based assay
Data set [22] is filed under the species Rattus norvegicus. Put plainly: Terminal half life in rat. Format: ADME, organism-based. Conditions: in vivo.
Data set [23] is described as follows: in vitro. The settings on record: human, UWB1.289 cells expressing BRCA1.
Description: Cytotoxicity against human UWB1.289 cells expressing BRCA1 assessed as inhibition of cell proliferation after 5 to 7 days by CellTiter-Blue assay
Data set [24] is described as follows: Fraction unbound in human plasma.
The test system of data set [25] is Plasma. Nature of the data set: Plasma trough concentration in human at 40 mg/day. Conditions: read-out: Cmin.
The nature of data set [26]: cells. The settings on record: Homo sapiens, UWB1289.
Description: Cytotoxicity against human UWB1.289 cells carrying BRCA1 mutant assessed as inhibition of cell proliferation after 5 to 7 days by CellTiter-Blue assay
The nature of data set [27]: Volume of distribution at steady state in dog. The settings on record: in vivo.
A short description of data set [28]: Terminal half life in dog. The settings on record: in vivo.
The nature of data set [29]: Cytotoxicity against human SUM1315MO2 cells carrying BRCA1 mutant assessed as inhibition of cell proliferation after 12 days by CellTiter-Blue assay. The settings on record: SUM1315MO2, 288 h.
The test system of data set [30] is HeLa. Nature of the data set: cells. Conditions: Homo sapiens.
Description: Cytotoxicity against wild type human HeLa cells assessed as inhibition of cell proliferation after 5 to 7 days by CellTiter-Blue assay
The target of data set [31] is T2, PARP 1, 2 and 3 (Homo sapiens). The settings on record: MDA-MB-436, 50 to 100 mg/kg.
Description: Inhibition of PARP activity in tumor of immunocompromised mouse xenografted with human MDA-MB-436 cells harboring BRCA1 mutant assessed as incorporation of [3H]NAD in PAR chains in response to nicked DNA at 50 to 100 mg/kg, po measured after 24 hrs
The nature of data set [32]: Plasma concentration in CD-1 mouse at 50 mg/kg, po after 24 hrs.
The nature of data set [33]: Antitumor activity against BRCA2-deficient human Capan1 cells xenografted in immunocompromised mouse assessed as tumor growth inhibition at 80 mg/kg, po qd for 2 to 4 weeks. The settings on record: CAPAN-1, po, read-out: TGI.
The nature of data set [34]: in vivo. Conditions: dog, plasma.
Data set [35] in a line: in vitro. The settings on record: human, BT20 cells.
Description: Cytotoxicity against human BT20 cells assessed as inhibition of cell proliferation after 5 to 7 days by CellTiter-Blue assay
Data set [36] addresses T2, PARP 1, 2 and 3 (Homo sapiens). The settings on record: HeLa.
Description: Inhibition of PARP in human HeLa cells assessed as inhibition of hydrogen peroxide-induced PARylation by cell-based assay
A short description of data set [37]: Fraction unbound in mouse plasma.
Data set [38] concerns A549. Nature of the data set: cells. The settings on record: Homo sapiens. This is another data set of the same source.
Description: Cytotoxicity against wild type human A549 cells assessed as inhibition of cell proliferation after 5 to 7 days by CellTiter-Blue assay
Data set [39] concerns MDA-MB-436. Conditions: Homo sapiens, 80 mg/kg.
Description: Antitumor activity against human MDA-MB-436 cells harboring BRCA1 mutant xenografted in immunocompromised mouse assessed as tumor growth inhibition at 80 mg/kg, po qd for 1 to 2 weeks

Consider `CNC(C)(C)c1ccc(-n2cc3cccc(C(N)=O)c3n2)cc1`, for which, in data set [1], the CL amounted to 0.4 µL/min. The compound further returned a clearance in data set [2] of 30 mL/min/kg.
On to `CN(C)Cc1ccc(-n2cc3cccc(C(N)=O)c3n2)cc1`, for which the CL in data set [1] is 8.7 µL/min. Further, the Drug metabolism result in data set [3] and in data set [5] was “metabolite_detected” in each case. For the same compound, the Selectivity ratio in data set [4] is more than 10.
As to `NC(=O)c1cccc2cn(-c3ccc([C@H]4CCCNC4)cc3)nc12`, the CL in data set [1] was 7 µL/min. For the same compound, in data set [6], the microsomal CLint was 4 µL/min/mg.
As to `NC(=O)c1cccc2cn(-c3ccc4c(c3)CCNC4)nc12`, in data set [1], the CL is 0.7 µL/min. For the same compound, in data set [2], the clearance came to 30 mL/min/kg.
With `NC(=O)c1cccc2cn(-c3ccc(C4CCCN4)cc3)nc12` (stereo not drawn), the CL in [1] was found to be 22 µL/min.
`NC(=O)c1cccc2cn(-c3ccc(C4CCCNC4)cc3)nc12` (stereo not drawn): in [1], the CL was found to be 11 µL/min.
`O=C(O)c1cccc2cn(-c3ccc([C@@H]4CCCNC4)cc3)nc12` showed an IC50 in data set [7] of 0.0038 µM.
In the case of `NC(=O)c1cccc2cn(-c3ccccc3)nc12`, the clearance in [8] was found to be 30 mL/min/kg.
Turning to `CNCc1ccc(-n2cc3cccc(C(N)=O)c3n2)cc1`, in [1], the CL came out at 6 µL/min.
As for `NC(=O)c1cccc2cn(-c3ccc([C@@H]4CCCNC4)cc3)nc12` [NIRAPARIB], the values for the dose excreted in data set [9] and in [18] were less than 5% and 45%, respectively. Besides, the inhibition in data set [10] and in [31] was more than 90% each time. Also, the half-maximal cytotoxic concentration (CC50) in [11] was 0.023 µM; in data set [13] it was 0.034 µM; in data set [17] it was 0.024 µM; in [19], 0.011 µM; in [23] it was 0.975 µM; in data set [26] it was 0.056 µM. Moreover, the 50% cytotoxic concentration (CC50) in data set [29] came out at 0.02 µM; in data set [30] it was 0.852 µM; in data set [35], 2.2 µM; in [38], 1.76 µM. Besides, the concentration is more than 2000 nM in [12] and 288 nM in [25]. The CL in data set [1] stood at 16 µL/min. For the same compound, the inhibition entry in [14] was “Active”. The results for the concentration for an effect of 90% (IC90) in data set [15], in [21] and in data set [36] were 0.05 µM, 0.052 µM and 0.046 µM, respectively. The same compound gave a bioavailability in data set [16] of 57%. Further, the distribution volume (Vd) amounted to 6.9 L/kg in data set [20] and 12.3 L/kg in data set [27]. The compound further came in with a microsomal CLint in data set [6] of 3 µL/min/mg. Further, in data set [22], the “beta t1/2” value came out at 3.4 h. The fraction unbound in [24] was found to be 0.16; in data set [37], 0.26. In addition, in [28], the half-life is 5.7 h. In [32], the concentration at 24 h was 100 nM. For the same compound, the inhibition in vivo at 80 mg/kg in data set [33] is 60%. This compound registered a clearance in [34] of 31 mL/min/kg. Moreover, the TGI entry in [39] was “Active”.
